Laboratory results taken from EP0942911B1, “BENZOPYRANOPYRROLE AND BENZOPYRANOPYRIDINE ALPHA-1 ADRENERGIC COMPOUNDS” (Abbott Laboratories, priority 1996, dated 1998).
Counter-ions that a name gives are not always drawn. Like-named read-outs stand apart in the source and are kept apart here.

Tests used:
Assay in all cases: biochemical
α-1d adrenoreceptor = target: T1, α-1d adrenoreceptor (Rattus norvegicus, UniProt P23944); format: binding; details: read-out: Radioligand Binding (Ki, nM) 1d (Rat)
T1 sequence (P23944 1-561): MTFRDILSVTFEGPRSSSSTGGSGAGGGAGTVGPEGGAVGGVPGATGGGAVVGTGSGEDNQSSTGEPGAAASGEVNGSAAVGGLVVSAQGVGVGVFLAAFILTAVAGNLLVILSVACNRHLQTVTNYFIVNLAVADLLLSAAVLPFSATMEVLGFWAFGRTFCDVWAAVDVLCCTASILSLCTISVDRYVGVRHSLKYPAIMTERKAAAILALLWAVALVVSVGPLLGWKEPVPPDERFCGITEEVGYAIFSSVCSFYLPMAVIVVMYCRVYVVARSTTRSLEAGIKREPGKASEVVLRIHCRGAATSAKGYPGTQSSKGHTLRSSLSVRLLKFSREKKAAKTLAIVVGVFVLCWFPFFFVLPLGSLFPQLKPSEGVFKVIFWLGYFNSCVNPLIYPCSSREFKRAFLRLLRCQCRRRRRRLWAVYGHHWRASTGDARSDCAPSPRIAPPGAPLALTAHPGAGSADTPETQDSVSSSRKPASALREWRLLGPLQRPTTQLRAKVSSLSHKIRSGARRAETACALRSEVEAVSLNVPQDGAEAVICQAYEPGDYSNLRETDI
Source text: (§1) The cDNA clones encoding the α-1 adrenoreceptors (α-1a, α-1b, and α-1d) were obtained from TULCO (Triangle Universities Licensing Consortium, Research Triangle Park, NC) and inserted into the eukaryotic expression vector SnaB30. In this vector, expression of the adrenoreceptor gene is under the transcriptional control of an SV40 early promoter. Positive drug selection is provided by a neomycin-resistance gene. Mouse fibroblast cells (LTK) were transfected with the α1 expression plasmids and grown in Dulbecco's modified Eagle's medium (DMEM) containing 10% fetal calf serum and 30 µM G418. Stable G418-resistant parental lines were generated, with successful expression of adrenoreceptor protein monitored using radioligand binding techniques. Stable single cell clones derived from the parental lines were screened in adrenoreceptor binding assays to identify clones having high adrenoreceptor density. Roller bottle cultures of the cloned lines were used to provide cell membranes for subsequent adrenoreceptor binding characterization studies. A cell line containing the SnaB30 vector expressing the human erythropoietin gene served as a negative control.
(§2) For adrenoreceptor binding assays, large scale membrane preparations were utilized in which 6 million cells were seeded into small (450 cm^2) Corning tissue culture roller bottles. 200 mL of DMEM containing 10% fetal calf serum and 300 µM G418 were added to each roller bottle. A 95% air / 5% CO2 gas mixture (sterile) was injected into each roller bottle prior to sealing. The bottles were then incubated at 37 °C on a roller rack for 5 days. Cells were re-fed with fresh medium after 3 days in culture.
(§3) On the fifth day of culture, growth medium was removed from cells grown in roller bottles, and the cells were washed twice with PBS (Sigma, 120 mM NaCl, 2.7 mM KCl, 10 mM Na2HPO4-NaH2PO4, pH = 7.4). Cells were detached from the roller bottles by incubating for 15 minutes at 37 °C in a Tris-EDTA solution (10 mM Tris, 100 mM NaCl, 1 mM EDTA, pH = 7.4). The cell suspension from each roller bottle was decanted into tared centrifuge tubes and kept on ice. An aliquot of each cell suspension was generally taken for cell counting. Cells were centrifuged at 3000 X G for 5 min at 2-4 °C, washed with PBS and recentrifuged. The supernatant was decanted and the pellet weighed to determine the wet weight of cells. Cells were washed a final time in 40 vol 5 mM Tris-HCl, 5 mM EDTA, pH = 7.7, and centrifuged at 40,000 X G for 10 minutes. Cells were homogenized in 10 mL of 50 mM Tris-HCl, 5 mM EDTA (pH = 7.4) and diluted to 40 mL/tube. Homogenates were centrifuged at 40,000 X G for 10 minutes. The supernatant was decanted and the pellets rehomogenized in 50 mM Tris-HCl (pH = 7.4) and centrifuged as before. The supernatant was decanted and the homogenate resuspended in 6.25 volumes (per gram wet weight) of 50 mM Tris-HCl and aliquots of the pooled homogenates frozen in liquid N2 and stored at -70 °C until the time of assay. Rat submaxillary glands were used for α-1A adrenoreceptors and were prepared essentially as described (Michel, A. D., Loury, D. N. and Whiting, R. L., Brit. J. Pharmacol. 98: 83-889 (1989)).
(§4) Receptor binding assays for α-1 adrenoreceptors were performed essentially as described by Greengrass and Bremner (Eur. J. Pharmacol. 55: 323-326 (1979)). […] Radioactivity was determined by standard liquid scintillation techniques. Data were analyzed as previously described (Hancock, A. A., Kyncl, J. J., Martin, Y. C. and DeBernardis, J. F., J. Receptor Res. 8: 23-46 (1988)).

α-1a adrenoreceptor = target: T2, α-1a adrenoreceptor (Bos taurus, UniProt P18130); format: binding, bovine; details: read-out: Radioligand Binding (Ki, nM) 1a (Bovine)
T2 sequence (P18130 1-466): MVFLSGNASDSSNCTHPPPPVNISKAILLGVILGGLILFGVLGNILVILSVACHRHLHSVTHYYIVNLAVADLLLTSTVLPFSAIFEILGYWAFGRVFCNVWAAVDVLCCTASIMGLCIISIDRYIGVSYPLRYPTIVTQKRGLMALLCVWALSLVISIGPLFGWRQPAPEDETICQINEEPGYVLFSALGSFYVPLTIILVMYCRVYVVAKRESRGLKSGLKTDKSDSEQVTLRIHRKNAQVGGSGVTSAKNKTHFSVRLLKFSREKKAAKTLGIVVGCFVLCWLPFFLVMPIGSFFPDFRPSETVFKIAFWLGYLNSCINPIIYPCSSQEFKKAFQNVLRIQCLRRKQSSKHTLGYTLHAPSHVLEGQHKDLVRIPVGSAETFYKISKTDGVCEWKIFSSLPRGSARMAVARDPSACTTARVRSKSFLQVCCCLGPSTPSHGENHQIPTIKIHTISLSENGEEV
Source text: as §1, §2, §3, §4

[1] = target: T3, α-1A adrenoreceptor (rat submaxillary gland) (Rattus norvegicus, UniProt P43140); format: binding; details: read-out: Radioligand Binding (Ki, nM) 1A (Rat)
T3 sequence (P43140 1-466): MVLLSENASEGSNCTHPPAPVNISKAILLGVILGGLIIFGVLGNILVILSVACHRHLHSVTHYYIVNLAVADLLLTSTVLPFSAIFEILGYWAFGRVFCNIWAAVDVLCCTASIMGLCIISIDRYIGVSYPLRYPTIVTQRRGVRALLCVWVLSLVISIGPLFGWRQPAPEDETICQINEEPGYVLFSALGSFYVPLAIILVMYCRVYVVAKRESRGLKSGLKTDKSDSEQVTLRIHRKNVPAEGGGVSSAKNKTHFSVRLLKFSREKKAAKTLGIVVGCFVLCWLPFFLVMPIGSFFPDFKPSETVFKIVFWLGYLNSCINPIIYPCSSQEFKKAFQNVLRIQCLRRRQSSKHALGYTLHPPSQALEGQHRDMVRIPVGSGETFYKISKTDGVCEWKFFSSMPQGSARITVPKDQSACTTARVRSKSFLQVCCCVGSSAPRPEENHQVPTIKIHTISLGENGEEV
Procedure: Additionally, binding affinity against the pharrnacologically defined α-1A adrenoreceptor (rat submaxillary gland) was measured.
as §3, §4

α-1b adrenoreceptor = target: T4, α-1b adrenoreceptor (Mesocricetus auratus, UniProt P18841); format: binding, hamster; details: read-out: Radioligand Binding (Ki, nM) 1b (Hamster)
T4 sequence (P18841 1-515): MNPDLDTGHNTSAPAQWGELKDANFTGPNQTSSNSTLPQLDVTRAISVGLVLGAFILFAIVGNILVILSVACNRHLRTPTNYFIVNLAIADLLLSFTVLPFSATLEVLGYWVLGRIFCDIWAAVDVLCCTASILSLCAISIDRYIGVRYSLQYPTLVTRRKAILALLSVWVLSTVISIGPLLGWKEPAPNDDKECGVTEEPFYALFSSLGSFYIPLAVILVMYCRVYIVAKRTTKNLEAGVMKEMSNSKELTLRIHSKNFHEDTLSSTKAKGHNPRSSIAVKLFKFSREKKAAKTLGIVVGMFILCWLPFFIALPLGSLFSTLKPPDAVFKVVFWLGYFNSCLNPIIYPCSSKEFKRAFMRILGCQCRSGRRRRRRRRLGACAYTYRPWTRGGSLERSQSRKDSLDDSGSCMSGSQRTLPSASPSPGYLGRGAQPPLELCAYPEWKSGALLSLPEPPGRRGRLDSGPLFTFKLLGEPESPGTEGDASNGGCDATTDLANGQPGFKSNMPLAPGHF
Source text: as §1, §2, §3, §4

[2] = [3H]-prazosin radioligand, cloned receptor in LTK cell membranes
[3] = [3H]-prazosin radioligand, rat submaxillary gland membranes

Molecule	Ki (α-1d adrenoreceptor; [2]) [nM]	Ki (α-1a adrenoreceptor; [2]) [nM]	Ki [1, 3] [nM]	Ki (α-1b adrenoreceptor; [2]) [nM]	Ki (α-1d adrenoreceptor) [nM]	Ki (α-1a adrenoreceptor) [nM]	Ki [1] [nM]	Ki (α-1b adrenoreceptor) [nM]
COc1ccc(O)c2c1[C@@H]1CN(CCCCn3c(=O)[nH]c4c(sc5ncc(-c6ccccc6)nc54)c3=O)C[C@@H]1CO2 [Example 105, 3-[4-((3aR,9bR)-cis-6-Hydroxy-9-methoxy-1,2,3,3a,4,9b-hexahydro-[1]-benzopyrano[3,4-c]pyrrol-2-yl)butyl]-8-phenyl-pyrazino[2',3':4,5]thieno[3,2-d]pyrimidine-2,4(1H,3H)-dione]	55.9	6.42	26.3	1620	–	–	–	–
COc1cccc2c1[C@H]1CN(CCCCn3c(=O)[nH]c4c(sc5c(Cl)ccnc54)c3=O)C[C@@H]1CO2 [Example 5, 3-[4-((3aR,9bS)-trans-9-Methoxy-1,2,3,3a,4,9b-hexahydro-[1]-benzopyrano[3,4-c]pyrrol-2-yl)butyl]-6-chloro-pyrido[2',3':4,5]thieno[3,2-d]pyrimidine-2,4(1H,3H)-dione dihydrochloride]	0.638	0.086	0.268	2.01	–	–	–	–
COc1ccc2sc3c(=O)n(CCCCN4C[C@@H]5COc6cccc(OC)c6[C@H]5C4)c(=O)[nH]c3c2n1 [Example 7, 3-[4-((3aR,9bS)-trans-9-Methoxy-1,2,3,3a,4,9b-hexahydro-[1]-benzopyrano[3,4-c]pyrrol-2-yl)butyl]-8-methoxy-pyrido[2',3':4,5]thieno[3,2-d]pyrimidine-2,4(1H,3H)-dione hydrochloride]	0.438	0.215	0.53	1.61	–	–	–	–
COc1cc(O)cc2c1[C@@H]1CN(CCCCn3c(=O)[nH]c4c(sc5ncc(-c6ccccc6)nc54)c3=O)C[C@@H]1CO2 (relative stereo) [Example 104, 3-[4-(-cis-7-Hydroxy-9-methoxy-1,2,3,3a,4,9b-hexahydro-[1]-benzopyrano[3,4-c]pyrrol-2-yl)butyl]-8-phenyl-pyrazino[2',3':4,5]thieno[3,2-d]pyrimidine-2,4(1H,3H)-dione]	5.2	0.427	3.59	266	–	–	–	–
COc1cccc2c1[C@@H]1CN(CCCCn3c(=O)[nH]c4c(sc5nccnc54)c3=O)C[C@@H]1CO2 [Example 15, 3-[4-((3aR,9bR)-cis-9-Methoxy-1,2,3,3a,4,9b-hexahydro-[1]-benzopyrano[3,4-c]pyrrol-2-yl)butyl]-pyrazino[2',3':4,5]thieno[3,2-d]pyrimidine-2,4(1H,3H)-dione dihydrochloride]	0.928	0.068	0.227	4.41	–	–	–	–
COc1cccc2c1[C@@H]1CN(CCCCn3c(=O)[nH]c4c(sc5cccnc54)c3=O)C[C@@H]1CO2 (racemic) [Example 73, 3-[4-((±)-cis-9-Methoxy-1,2,3,3a,4,9b-hexahydro-[1]-benzopyrano[3,4-c]pyrrol-2-yl)butyl]-pyrido[2',3':4,5]thieno[3,2-d]pyrimidine-2,4[1H,3H)-dione dihydrochloride]	–	–	–	–	0.187	0.038	0.087	1.31
COc1cccc2c1[C@@H]1CN(CCCCn3c(=O)[nH]c4c(sc5ncc(Cl)nc54)c3=O)C[C@@H]1CO2 [Example 16, 3-[4-((3aR,9bR)-cis-9-Methoxy-1,2,3,3a,4,9b-hexahydro-[1]-benzopyrano[3,4-c]pyrrol-2-yl)butyl]-8-chloro-pyrazino[2',3':4,5]thieno[3,2-d]pyrimidine-2,4(1H,3H)-dione hydrochloride]	0.729	0.073	0.373	8.64	–	–	–	–
3-[2-((±)-trans-10-Methoxy-1,3,4,4a,5,10b-hexahydro-2H-[1]-benzopyrano[3,4-c]pyrido-3-yl)ethyl]-6,7-dimethoxy-quinazoline-2,4(1H,3H)-dione hydrochloride [Example 91]	0.495	0.066	0.102	1.46	–	–	–	–
